Here are results for 1 compound from patent US20250213548A1, “PHARMACEUTICAL COMPOSITIONS FOR IMPROVING ORAL BIOAVAILABILITY” (Bristol-Myers Squibb Company, priority 2022, published 2025).

A short description of data set [1]: in vivo. The settings on record: cynomolgus monkey, iv.
Experimental: (§1) Four coated tablets were added in each #00 gray opaque hard gelatin capsule for the cyno PK study. Each cyno monkey was dosed with 2 capsules (8 coated tablets).
(§2) Fasted male cyno monkeys (n=3) were dosed by oral route followed by gavage flush with water to facilitate gastro-intestinal dissolution. Blood samples were taken at predetermined times over 72 hours post-dose to measure comparative pharmacokinetics between the formulations. Due to the long half-life these were conducted in a parallel group design in different sets of cyno monkeys.
For data set [2] the following is noted: rat, in vivo.
Experimental: The study was run as a two-treatment, two-segment, parallel study in anesthetized, fasted, male Sprague Dawley rats (rat weight: ˜300 g) with 4 rats per group.
For duodenal absorptional testing, the rats were ligated at pylorus (proximal) and the subject formulation was injected directly into duodenum 5 cm past pylorus ligation (about 15 cm from the pylorus) and the distal part of the segment was ligated to contain drug in intestinal segment.
Samples of the dosed solution from gastric and duodenal segments were extracted at 60 min to measure remaining drug concentrations.
Data set [3] in a line: in vivo. The settings on record: beagle, dog, iv, 10 mg.
Experimental: (§3) Fasted pentagastrin-pretreated male beagle dogs (n=4) were dosed by oral route followed by gavage flush with water to facilitate gastro-intestinal dissolution. Blood samples were taken at predetermined times over 72 hours post-dose to measure comparative pharmacokinetics between the formulations. Due to the long half-life these were conducted in a parallel group design in different sets of dogs.
Data set [4] is described as follows: in vivo. The settings on record: beagle, dog, iv, 10 mg. The source holds these as a separate data set.
Experimental: as §3
Data set [5] in a line: in vivo. The settings on record: dog, iv, 10 mg.
Experimental: Dogs were administered formulations as follows: • 2×50 mg tablets with 10% API (Example 10, 88.6 mg dose after API potency correction) • 10×10-mg tablets with 10% API (Example 11, 88.6 mg dose after API potency correction) • 5×10 mg tablets with 10% API (Example 11, 44.3 mg dose after API potency correction) and 5 placebo tablets with enhancer only. • 10×5 mg tablets with 5% API (44.3 mg dose after API potency correction) • 40×2.5 mg tablets with 10% API (Example X, 100 mg dose after potency correction)
The conditions of data set [6]: cynomolgus monkey, in vivo, iv, 0.1 mg/kg.
Experimental: as §1, §2
Data set [7] in a line: Oral absorption of prepared formulations of Compound (II) in dogs (Example 10, 70 mg). The settings on record: beagle, dog, blood, iv, 10 mg.
Experimental: as §3
Data set [8] is described as follows: Oral absorption of formulated tablets of Compound (II) in cyno monkeys (PK). The conditions noted are these: cynomolgus monkey, iv, 0.1 mg/kg.
Experimental: as §1, §2

Consider `CCCC[C@H]1C(=O)N(C)[C@@H](CCCC)C(=O)N[C@@H](CC(C)C)C(=O)N[C@H](C(=O)NCC(=O)N[C@@H](Cc2cn(CCOCCOCCCOCCCOCCOCCOCCOCCOCCOCCOCCOCCNC(=O)CC[C@H](NC(=O)CCCCCCCCCCCCCCCCC(=O)O)C(=O)O)nn2)C(=O)O)CSCC(=O)N[C@@H](Cc2ccc(O)cc2)C(=O)N(C)[C@@H](C)C(=O)N[C@@H](CC(N)=O)C(=O)N2CCC[C@H]2C(=O)N[C@@H](CN)C(=O)N[C@@H](CC(C)C)C(=O)N2C[C@H](O)C[C@H]2C(=O)N[C@@H](Cc2c[nH]c3ccccc23)C(=O)N[C@@H](CCN)C(=O)N[C@@H](Cc2cn(CC(=O)O)c3ccccc23)C(=O)N1C` [Compound (II)], for which the Tmax in data set [1] (0.1 mg/kg) came out at 18 min; in data set [3] it was 12 min; in data set [4] it was 12 min; in data set [5] it was 12 min. The compound also had a level at time molar at 24 h in data set [1] (0.1 mpk) of 0.544 µM. In addition, the “systemic absorption, intestinal compartment compared to the gastric compartment” value in data set [2] is reported as “good systemic absorption”. Also, the AUC(0-inf) worked out at 402 µM·h in data set [3], 402 µM·h in data set [7] and 52 µM·h in data set [8] (blood). Moreover, the Cmax in data set [3] worked out at 8.55 µM; in data set [5] it was 25500 ng/mL; in data set [7], 8.55 µM; in data set [8] (in vivo) it was 0.798 µM. The AUC(0-t) in data set [3] (AUC0-24 h (nM · h) Mean) stood at 126 µM·h; in data set [3] (AUC0-t (nM · h)* Mean), 322 µM·h; in data set [5] (AUC0-24 h (ng · h/mL) Mean), 376 µg·h/mL; in data set [5] (AUC0-72 h (ng · h/mL) Mean) it was 833 µg·h/mL; in data set [8] (in vivo), 47.6 µM·h. For the same compound, the “BA (%) using AUCInf Mean” value in data set [6] came to 100.00%.

By Tmax is commonly meant the time from dosing to the highest level. As a reminder, the AUC(0-inf) is the area under the concentration-time curve extrapolated to infinity. Lower therefore signals less exposure. As a reminder, the Cmax is the peak of the concentration-time curve. In general, AUC(0-t) refers to exposure summed from dosing to a finite time, without extrapolation to infinity. High values mean more exposure, low ones less exposure.
